This is an account of results in paper PMC11391341, “Rational design and in vitro testing of new urease inhibitors to prevent urinary catheter blockage” (RSC Medicinal Chemistry, 2024).

Entries after “also recorded” stand apart in the source; their conditions may differ. Where two headings read alike, the source gives them in different places.

Data set [1] in a line: Solubility (statement in conclusions). The class given is physicochemical.
A further data set concerns E. coli NSM59. Kind of data set: Minimum inhibitory concentration (MIC) assay, E. coli. Type of data set: cell-based, Escherichia coli. How it is done:
(§1) The compound was dissolved in sterile water with 5% (v/v) DMSO. To the first column on a 96-well plate (Corning, UK), 200 μL of compound was added, it was then serially diluted two-fold (100 μL) across the plate to column 10. A subculture of P. mirabilis (1 × 10^6 CFU mL^−1) or E. coli NSM59 (1 × 10^6 CFU mL^−1, from the Jenkins Group collection, University of Bath), 100 μL, was added to all columns 1–10. LB broth only was added to column 11, the negative control and 200 μL of P. mirabilis/E. coli subculture was added to column 12, the positive control. The plate was incubated at 37 °C for 18 h, using a SPECTROstar Omega plate reader (BMJ LabTech) the absorbance at 600 nm was measured at regular time points during the 18 h incubation. The plate was shaken for 10 s, at 200 rpm prior to a reading being taken. The MIC was defined as the lowest concentration of compound that inhibited growth and the highest concentration that permitted bacterial growth. Initially, this was done through visualization of the plate after 18 h but also through examination of the growth curves measured at OD600.

Data set [2] has as its target T1, urease expressed in whole cell Proteus mirabilis (Proteus mirabilis, UniProt P17086).
T1 construct: Urease in P. mirabilis is intracellular; endogenous in cells; host or cells: Proteus mirabilis B4 (Jenkins Group collection, University of Bath), whole cells
Nature of the data set: Urease activity assay (Berthelot), whole-cell P. mirabilis. The class given is cell-based. The following applies: for A1 (dose-response fit parameter) / A2 (dose-response fit parameter): % urease activity; for A1 (dose-response fit parameter) / A2 (dose-response fit parameter) / LOGx0 (dose-response fit): Proteus mirabilis whole cell, Supplementary Table 3; for fold lower IC50 than AHA: whole cell P. mirabilis urease. How it is done: The in vitro assay used to measure the urease activity was the Berthelot assay, which measure the accumulation of ammonia.[54,55] Compounds were tested using whole-cell P. mirabilis B4 (from the Jenkins Group collection, University of Bath). P. mirabilis was cultured overnight, 37 °C with 200 rpm shaking in 10 mL of Luria-Bertani broth (LB, Merck, Germany). The overnight culture was centrifuged, 3100 g, 10 min, at 4 °C (5810 R Eppendorf); the supernatant was discarded, and the pellet resuspended in phosphate buffer saline (PBS, Fisher Scientific, UK). In each well of a 96-well plate (Corning) 10 μL of 0.5% sulfuric acid was added. P. mirabilis (100 μL, 0.004 mg mL^−1) in phosphate buffer was incubated with the desired compound concentration and urea (100 μL, 50 mM in phosphate buffer) for 30 min at 37 °C.
Experiments were run in triplicate of two technical replicates (n = 6), with 10-fold dilutions of the compounds including a positive and negative control. To each well, 20 μL of 60 mM sodium hydroxide is added. Solution A (50 μL, 106 mM phenol, 191 μM sodium nitroprusside) and solution B (50 μL, 125 mM sodium hydroxide, 125 mM sodium hypochlorite) were added to each well and the plate was incubated for 30 min at 37 °C. The absorbance of the wells was read at 636 nm (SPECTROstar Omega BMG LabTech, Germany). Urease activity was calculated using eqn (1). IC50 was determined using non-linear regression (GraphPad Prism v9).1 [drawing 1]

The test system of data set [3] is P. mirabilis B4. Nature of the data set: In vitro bladder model of the catheterized urinary tract. Type of data set: cell-based, Proteus mirabilis. The following applies: balloon inflated with 20 mM compound, Biomodics IPN catheter. How it is done: The in vitro bladder model of a catheterized urinary tract enables the simulation of the crystalline biofilm and measurement of the blockage of the catheter caused by a P. mirabilis infection.[44,45] The artificial bladders were infected with a high inoculum of bacteria to mimic a late-stage CAUTI, average inoculation was 3.36 × 10^7 CFU mL^−1. Each model was catheterized with a Biomodics IPN catheter, and the balloons were inflated with 20 mM AHA in a 9 : 1 mixture of saline and DMSO; 20 mM Bis-TU in a 9 : 1 mixture of saline and DMSO; and the control bladder a 9 : 1 mixture of saline and DMSO. The artificial bladders were allowed to equilibrate over 18 h before inoculation. There is approximately a four-fold dilution during the diffusion of the compound in the artificial urine (∼5 mM at the start), however, this concentration changes once the pumps start because of the continual dilution from the filling of the bladder from the ‘kidneys’ and the drainage via the catheter. Monitoring of the pH and CFU mL^−1 in the bladder allowed tracking of the experiment (Fig. 6A and B). […] The blockage of the catheters was the end of the experiment and allowed determination of whether the compounds could increase the lifetime of the catheter (Fig. 6C).
In vitro bladder models were set up as described by Nzakizwanayo et al., the flow rate was set to run at 0.8 mL min^−1 using a Watson-Marlow 323S/D (030.3134.3DU) pump.[45] The artificial bladders were maintained at 37 °C and catheterized with Biomodics IPN catheters (donated by Biomodics ApS). Balloons were inflated with 10 mL of the following solutions: control bladder: a 9 : 1 mixture of saline (150 mM sodium chloride) and DMSO; Bis-TU bladder: 20 mM Bis-TU in a 9 : 1 mixture of saline and DMSO; and AHA bladder: 20 mM AHA in a 9 : 1 mixture of saline and DMSO. The models were set up and filled with artificial urine until they started to drain, the pump was then paused, and the compound solution allowed to equilibrate with the artificial urine in the bladder for 18 h. P. mirabilis B4 (from the Jenkins Group bacteria collection) was grown at 37 °C overnight with 200 rpm shaking in 10 mL of LB (Merck, Germany). […] Inoculation and CFU was determined by the Miles and Misra quantification technique.[56] At regular time intervals during the experiment, a sample was taken aseptically from each artificial bladder for bacterial quantification and to measure the pH. The end of the experiment was determined when the bladders blocked. Additionally, the artificial bladders were monitored by time-lapse photography overnight using a Nikon D3100 camera with photos taken every 2 min.

Data set [4] in a line: Delivery across the catheter balloon into artificial urine (UV-vis). Type of data set: physicochemical. The note with it: 37 °C, 12 h. How it is done:
Delivery through the permeable balloon was measured using UV-vis spectroscopy with a quartz cuvette (pathlength 1 cm) (Agilent Cary 60 UV-vis spectrometer). Calibration curves for AHA (Sigma) and N,N′-bis(3-pyridinylmethyl)thiourea (Flurochem, Bis-TU (A11)) were prepared using absorbances 235 nm and 239 nm, respectively (Fig. S5 ^†). Sterile 50 mL beakers were used to mimic the bladder; catheters were inflated with compound solutions, AHA (320 mM) or Bis-TU (85 mM). Biomodics IPN catheters were compared to standard all-silicone catheters (Tiga-Med, Germany). Beakers were filled with artificial urine, prepared according to Nzakizwanayo et al., 30 mL was added to the beakers which were sealed with parafilm and incubated at 37 °C.[45] Every hour for 12 h, 1 mL was removed from the artificial urine surrounding the catheter balloon and the absorbance spectra was measured. The 1 mL was returned to the beaker, so the volume remained constant. The quantity of compound released over time was determined using the calibration curves. Limit of detection (LOD) was calculated by eqn (2), where σ is the standard deviation of the lowest concentration.2 [drawing 2]

In data set [5] the test system is P. mirabilis B4. Nature of the data set: Minimum inhibitory concentration (MIC) assay, P. mirabilis. Type of data set: cell-based, Proteus mirabilis. How it is done:
as §1

The next data set deals with HepG2 cells. Kind of data set: HepG2 mammalian cell viability (MTT assay). The note with it: for survival of HepG2 cells: 10 mM, 24 h incubation. The class given is cell-based. How it is done: Freezer stocks of HepG2 cells were defrosted and re-suspended in Dulbecco's Eagle medium (DMEM) complete (Gibco, this contains minimum essential media (MEM, Gibco)). A T75 flask (Nunc) was seeded with 10 mL of complete DMEM. Cells were grown for 3–4 days, a 37 °C, 5% CO2, to achieve adherent cells. Old media was removed and 5 mL of PBS added to wash the cells, this was then aspirated. Cells were incubated with 3 mL, 0.25% trypsin (Gibco), and PBS (previously warmed to 37 °C) for 7 min at 37 °C. After incubation cells were checked using a microscope (Nikon TMS inverted phase contrast) to confirm that they were no longer adherent. Cells were dissociated with 4 mL of media and re-suspended by pipetting 10 mL approximately 20 times. Cells were centrifuged for 3 min at 1000 rpm, media was aspirated, and pellet was resuspended in 1 mL of media. Cells were counted using a hemocytometer and new flasks were reseeded with 200 μL of cells to 10 mL of media. To maintain stocks, cells were sub-cultured every 2–3 days.
Compounds, AHA and Bis-TU, were prepared at 10 mM with 1% DMSO in DMEM media. Varying concentrations of compounds were prepared by serial dilution across at 96-well plate (100 μL). MTT (Invitrogen) assay was used to measure the metabolic activity of the HepG2 cells. MTT (1 mg mL^−1) in media was filter sterilized and cell culture plates, 96-well (Nunc), were seeded with 1 × 10^4 cells per well and grown for 24 h. Media/compound was removed and MTT (100 μL) was added for 60 min at 37 °C and then removed. Isopropanol (150 μL) was added and the plate was incubated in foil for 15 min on an orbital shaker. Absorbance was measured at 590 nm (reference filter at 620 nm) (Sunrise, Tecan). The % survival was calculated as per eqn (4).4 [drawing 4]

T1 sequence (P17086 whole entry): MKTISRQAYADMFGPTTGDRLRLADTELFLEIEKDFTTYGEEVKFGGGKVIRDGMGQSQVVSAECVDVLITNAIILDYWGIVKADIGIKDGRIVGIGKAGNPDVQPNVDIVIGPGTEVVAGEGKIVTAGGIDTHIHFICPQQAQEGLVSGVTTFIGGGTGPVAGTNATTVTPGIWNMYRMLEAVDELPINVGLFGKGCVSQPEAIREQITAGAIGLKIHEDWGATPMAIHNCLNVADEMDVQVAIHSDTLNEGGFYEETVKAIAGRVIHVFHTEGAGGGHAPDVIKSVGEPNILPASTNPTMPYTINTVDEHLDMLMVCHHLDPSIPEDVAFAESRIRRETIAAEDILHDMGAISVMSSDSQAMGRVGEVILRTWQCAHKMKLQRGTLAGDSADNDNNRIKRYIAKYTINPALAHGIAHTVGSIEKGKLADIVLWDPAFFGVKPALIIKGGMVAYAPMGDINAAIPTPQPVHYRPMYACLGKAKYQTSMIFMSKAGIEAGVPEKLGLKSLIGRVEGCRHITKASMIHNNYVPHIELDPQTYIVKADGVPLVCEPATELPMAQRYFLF

Turning to `S=C(NCc1cccnc1)NCc1cccnc1` [Compound A11, N,N′-bis(3-pyridinylmethyl)thiourea], the solubility result in data set [1] is on record as “relatively low solubility”. For the same compound, the “inhibitory effect on growth” value in the data set on E. coli NSM59 is “only a modest inhibitory effect”. Further, in data set [2], the half-maximal inhibitory concentration (IC50) came to 1.4 µM, the “A1 (dose-response fit parameter)” value is recorded as -6.896%, the “A2 (dose-response fit parameter)” value was determined as 85.9% and the “LOGx0 (dose-response fit)” value is recorded as -5.851. For the same compound, the “fold lower IC50 than AHA” value in data set [2] is “ca. 25 fold”. For the same compound, in the data set with P. mirabilis B4 [3], the “catheter blockage time (lifetime of the catheter)” value was “significantly outperformed the clinical standard AHA, and the control”; the “pH in the bladder model” value is “lower than that of the AHA and control bladders”; the “quantity of bacteria (CFU mL^−1) in the bladder model” value was “comparable across all bladders”. Moreover, in data set [4], the “release across balloon of Biomodics IPN catheter” value is “zero order kinetics release” and the “release across balloon of standard silicone catheter” value was “no release”. Besides, the “inhibitory effect on growth” value with P. mirabilis B4 [5] is recorded as “only a modest inhibitory effect”. The “survival of HepG2 cells” value with HepG2 cells is reported as “affect the survival”. Besides, the “effect on HepG2 cells, AHA vs Bis-TU” value in the data set with HepG2 cells (concentrations below 1.25 mM, 24 h) is listed as “no difference”.
As for “Acetohydroxamic acid [AHA, reference compound]”, the “inhibitory effect on growth” value in the data set on E. coli NSM59 is “only a modest inhibitory effect”. For the same compound, in data set [2], the “A1 (dose-response fit parameter)” value amounted to 1.739%, the “A2 (dose-response fit parameter)” value was 91.3% and the “LOGx0 (dose-response fit)” value was -4.436. In addition, the IC50 in data set [2] (whole cell Proteus mirabilis, ± standard deviation, read-out: IC50) was 36.6 µM. For the same compound, the “quantity of bacteria (CFU mL^−1) in the bladder model” value in the data set on P. mirabilis B4 [3] is “comparable across all bladders”. Also, in data set [4], the “release across balloon of Biomodics IPN catheter” value is “zero order kinetics release” and the “release across balloon of standard silicone catheter” value was “no release”. Besides, in the data set with P. mirabilis B4 [5], the “inhibitory effect on growth” value was “only a modest inhibitory effect”. In the data set with HepG2 cells, the “survival of HepG2 cells” value is “affect the survival”.
In the case of `NC(=S)NCc1ccccc1` [Compound A6, benzylthiourea], in data set [2], 22.7 µM corresponded to half-maximal inhibition (IC50), the “A1 (dose-response fit parameter)” value is given as 5.57%, the “A2 (dose-response fit parameter)” value is 78.71% and the “LOGx0 (dose-response fit)” value is -4.644.
As to `NC(=O)CS` [Compound 2-MA, 2-mercaptoacetamide, reference compound], in data set [2] (whole cell Proteus mirabilis, ± standard deviation), the 50% inhibitory concentration (IC50) entry was “did not fit to a sigmoidal dose–response curve; also recorded: No fit”.
With `NC(=S)Nc1ccccc1` [Compound A5, N-phenylthiourea], in data set [2], the IC50 came to 9.66 µM, the “A1 (dose-response fit parameter)” value is given as -2834%, the “A2 (dose-response fit parameter)” value was 141.8% and the “LOGx0 (dose-response fit)” value is -5.015.
In the case of `O=c1c(O)c(-c2ccc(O)c(O)c2)oc2cc(O)cc(O)c12` [Quercetin, quercetin, reference compound], in data set [2], half-maximal inhibition (IC50) was put at 0.866 µM, the “A1 (dose-response fit parameter)” value is on record as -6.874%, the “A2 (dose-response fit parameter)” value was found to be 68.53% and the “fold lower IC50 than AHA” value was “ca. 25 fold”.
